Consider 30 molecules from ChEMBL document CHEMBL1127848, “Three-dimensional quantitative structure-activity relationship of human immunodeficiency virus (I) protease inhibitors. 2. Predictive power using limited exploration of alternate binding modes” (J Med Chem, 1994).

The test has as its target Human immunodeficiency virus type 1 protease (Human immunodeficiency virus 1, UniProt Q72874). Briefly: Inhibitory activity against HIV-1 Protease.

As a reminder, the IC50 is the concentration that inhibits the measured activity by half. Molecule `CC[C@H](C)[C@H](NC(=O)[C@H](C(C)C)[C@@H](O)[C@H](O)[C@H](CC1CCCCC1)NC(=O)c1ncccc1OCSc1ccccc1)C(=O)NCc1nc2ccccc2[nH]1` showed an IC50 of 315 nM.
To `CC[C@H](C)[C@H](NC(=O)[C@H](C(C)C)[C@@H](O)[C@H](O)[C@H](CC1CCCCC1)NC(=O)c1ccccc1OCSc1ccccc1)C(=O)NCc1nc2ccccc2[nH]1` belongs 11.2 nM.
`CC[C@H](C)[C@H](NC(=O)[C@H](C(C)C)C(O)[C@H](O)[C@H](CC1CCCCC1)NC(=O)c1ncccc1OCOc1ccccc1)C(=O)NCc1nc2ccccc2[nH]1` (stereo not given in full) showed an IC50 of 540 nM.
To `CC[C@H](C)[C@H](NC(=O)[C@H](C(C)C)C(O)[C@H](O)[C@H](CC1CCCCC1)NC(=O)c1ccccc1OCOc1ccccc1)C(=O)NCc1nc2ccccc2[nH]1` (stereo not given in full) belongs 18 nM; to `CC[C@H](C)[C@H](NC(=O)[C@H](C(C)C)[C@@H](O)[C@H](O)[C@H](CC1CCCCC1)NC(=O)c1cccc(C)c1OCOc1ccccc1)C(=O)NCc1nc2ccccc2[nH]1`, 108 nM; to `CC[C@H](C)[C@H](NC(=O)[C@H](C(C)C)[C@@H](O)[C@H](O)[C@H](CC1CCCCC1)NC(=O)c1ccccc1)C(=O)NCc1nc2ccccc2[nH]1`, 80.9 nM.
To `CC[C@H](C)[C@H](NC(=O)[C@H](C(C)C)[C@@H](O)[C@H](O)[C@H](CC1CCCCC1)NC(=O)C1CCCCC1)C(=O)NCc1ccccn1` belongs 49.5 nM; to `CC(C)(C)NC(=O)N(Cc1ccccc1)CC(O)[C@H](Cc1ccccc1)NC(=O)[C@H](CC(N)=O)NC(=O)OCc1ccccc1` (stereo not given in full), 19 nM; to `CCCCNC(=O)N(CC(C)C)CC(O)[C@H](Cc1ccccc1)NC(=O)[C@H](CC(N)=O)NC(=O)c1ccc2ccccc2n1` (stereo not given in full), 126 nM.
The molecule `CC(C)[C@@H](C(=O)N[C@H]1Cc2ccccc2[C@H]1O)[C@@H](O)[C@H](O)[C@H](CC1CCCCC1)NC(=O)c1ncccc1OCOc1ccccc1` gave an IC50 of 540 nM.
Under `CC(C)[C@@H](C(=O)N[C@H]1Cc2ccccc2[C@H]1O)[C@@H](O)[C@H](O)[C@H](CC1CCCCC1)NC(=O)c1ccccc1OCSc1ccccc1` stands 450 nM; under `CC(C)(C)NC(=O)N(CC(O)[C@H](Cc1ccccc1)NC(=O)[C@H](CC(N)=O)NC(=O)c1ccc2ccccc2n1)C1CCCCC1` (stereo not given in full), 5 nM; under `CC(C)CN(CC(O)[C@H](Cc1ccccc1)NC(=O)[C@H](CC(N)=O)NC(=O)c1ccc2ccccc2n1)C(=O)NC(C)(C)C` (stereo not given in full), 6.01 nM.
The molecule `C[C@H](c1ccccc1)N(CC(O)[C@H](Cc1ccccc1)NC(=O)[C@H](CC(N)=O)NC(=O)OCc1ccccc1)C(=O)NC(C)(C)C` (stereo not given in full) had an IC50 of 6500 nM.
Under `CC(C)(C)NC(=O)N(Cc1ccncc1)CC(O)[C@H](Cc1ccccc1)NC(=O)[C@H](CC(N)=O)NC(=O)OCc1ccccc1` (stereo not given in full) stands 105 nM.
To `CC(C)CCN(CC(O)[C@H](Cc1ccccc1)NC(=O)[C@H](CC(N)=O)NC(=O)OCc1ccccc1)C(=O)NC(C)(C)C` (stereo not given in full) belongs 13 nM.
Under `CC(C)[C@@H](C(=O)N[C@H]1Cc2ccccc2[C@H]1O)[C@@H](O)[C@H](O)[C@H](CC1CCCCC1)NC(=O)c1ncccc1OCSc1ccccc1` stands 2400 nM.
Turning to `CCNC(=O)N(CC(C)C)CC(O)[C@H](Cc1ccccc1)NC(=O)[C@H](CC(N)=O)NC(=O)OCc1ccccc1` (stereo not given in full), the IC50 is 330 nM.
Regarding `CCCCNC(=O)N(CC(C)C)CC(O)[C@H](Cc1ccccc1)NC(=O)[C@H](CC(N)=O)NC(=O)OCc1ccccc1` (stereo not given in full), the IC50 was 942 nM.
Under `CC(C)CCN(CC(O)[C@H](Cc1ccccc1)NC(=O)[C@H](CC(N)=O)NC(=O)c1ccc2ccccc2n1)C(=O)NC(C)(C)C` (stereo not given in full) stands 3 nM.
`CC(C)(C)NC(=O)N(Cc1ccccc1)CC(O)[C@H](Cc1ccccc1)NC(=O)[C@H](CC(N)=O)NC(=O)c1ccc2ccccc2n1` (stereo not given in full): the 50% inhibitory concentration (IC50) is 3 nM.
To `CC(C)(C)NC(=O)N(CC(O)[C@H](Cc1ccccc1)NC(=O)[C@H](CC(N)=O)NC(=O)OCc1ccccc1)C1CCCCC1` (stereo not given in full) belongs 29 nM; to `CNC(=O)N(CC(C)C)CC(O)[C@H](Cc1ccccc1)NC(=O)[C@H](CC(N)=O)NC(=O)OCc1ccccc1` (stereo not given in full), 1500 nM.
To `CC(c1ccccc1)N(CC(O)[C@H](Cc1ccccc1)NC(=O)[C@H](CC(N)=O)NC(=O)OCc1ccccc1)C(=O)NC(C)(C)C` (stereo not given in full) belongs 5090 nM.
To `CC(C)CN(CC(O)[C@H](Cc1ccccc1)NC(=O)[C@H](CC(N)=O)NC(=O)OCc1ccccc1)C(=O)NC(C)C` (stereo not given in full) belongs 260 nM; to `CC(C)(C)NC(=O)N(Cc1ccncc1)CC(O)[C@H](Cc1ccccc1)NC(=O)[C@H](CC(N)=O)NC(=O)c1ccc2ccccc2n1` (stereo not given in full), 19 nM; to `CCCNC(=O)N(CC(C)C)CC(O)[C@H](Cc1ccccc1)NC(=O)[C@H](CC(N)=O)NC(=O)OCc1ccccc1` (stereo not given in full), 543 nM.
With `CC(C)[C@@H](C(=O)N[C@H]1Cc2ccccc2[C@H]1O)[C@@H](O)[C@H](O)[C@H](CC1CCCCC1)NC(=O)c1ccccc1OCOc1ccccc1`, the IC50 is 540 nM.
`CC(C)[C@@H](C(=O)N[C@H]1Cc2ccccc2[C@H]1O)[C@@H](O)[C@H](O)[C@H](CC1CCCCC1)NC(=O)c1ccccc1` showed an IC50 of 36 nM.
To `CC(C)CN(CC(O)[C@H](Cc1ccccc1)NC(=O)[C@H](CC(N)=O)NC(=O)OCc1ccccc1)C(=O)NC(C)(C)C` (stereo not given in full) belongs 35 nM.
